Laboratory results published in article PMC5434554, “Structural similarities and functional differences clarify evolutionary relationships between tRNA healing enzymes and the myelin enzyme CNPase” (BMC Biochemistry, 2017).

Legend:
Experiment in all cases: thermal shift assay, SYPRO Orange
Type in all cases: binding
BfPNK/CPDase = target: T1, BfPNK/CPDase (Branchiostoma floridae, UniProt A0A9J7HK91); settings: 1000 µM; 50 mM HEPES pH 7.5, 150 mM NaCl, 1 mM ligand; ligand-free reference in the 1st table, row 9
T1 construct: gene LOC118405679; full length; N-terminal His6-3C tag cleaved; from E. coli Rosetta(DE3); monomer under reducing conditions
T1 sequence (A0A9J7HK91 entry or part of it): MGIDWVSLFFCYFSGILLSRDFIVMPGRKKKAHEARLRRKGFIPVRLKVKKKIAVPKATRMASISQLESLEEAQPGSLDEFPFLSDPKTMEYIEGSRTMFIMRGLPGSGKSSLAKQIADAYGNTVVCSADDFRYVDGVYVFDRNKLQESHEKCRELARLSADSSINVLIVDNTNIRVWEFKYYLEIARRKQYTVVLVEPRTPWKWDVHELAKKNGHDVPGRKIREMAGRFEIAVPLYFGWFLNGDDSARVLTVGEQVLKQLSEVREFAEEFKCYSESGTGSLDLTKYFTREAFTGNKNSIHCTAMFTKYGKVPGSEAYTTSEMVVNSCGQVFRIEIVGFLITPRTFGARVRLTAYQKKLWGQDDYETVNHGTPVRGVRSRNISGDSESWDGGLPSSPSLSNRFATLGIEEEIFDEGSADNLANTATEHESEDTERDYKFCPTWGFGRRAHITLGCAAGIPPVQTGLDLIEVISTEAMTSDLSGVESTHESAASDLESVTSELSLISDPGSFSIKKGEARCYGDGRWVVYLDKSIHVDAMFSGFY
Excerpt: thermal shift assay, SYPRO Orange on BfPNK/CPDase

ScTrl1 PNK/CPDase = target: T2, ScTrl1 PNK/CPDase (Saccharomyces cerevisiae, UniProt P09880); settings: 1000 µM; 50 mM HEPES pH 7.5, 150 mM NaCl, 1 mM ligand; ligand-free reference in the 1st table, row 3
T2 construct: gene TRL1; PNK + CPDase domains of Trl1 (C-terminal part, ligase domain absent); N-terminal His6-3C tag cleaved; E. coli Rosetta(DE3); monomer
T2 sequence (P09880 389-827 limits assumed): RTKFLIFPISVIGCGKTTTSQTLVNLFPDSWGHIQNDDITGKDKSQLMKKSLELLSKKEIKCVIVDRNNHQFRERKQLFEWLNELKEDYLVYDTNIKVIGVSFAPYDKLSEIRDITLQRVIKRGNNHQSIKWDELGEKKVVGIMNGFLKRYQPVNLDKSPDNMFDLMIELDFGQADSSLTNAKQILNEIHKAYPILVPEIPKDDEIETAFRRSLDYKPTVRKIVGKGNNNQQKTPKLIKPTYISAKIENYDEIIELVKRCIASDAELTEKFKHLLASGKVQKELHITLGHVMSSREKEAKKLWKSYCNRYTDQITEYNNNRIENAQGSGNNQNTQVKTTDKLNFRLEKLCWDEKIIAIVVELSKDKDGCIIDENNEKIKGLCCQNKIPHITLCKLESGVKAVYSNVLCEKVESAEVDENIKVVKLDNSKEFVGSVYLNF
Excerpt: thermal shift assay, SYPRO Orange on ScTrl1 PNK/CPDase

ScTrl1 CPDase = target: T3, ScTrl1 CPDase (Saccharomyces cerevisiae, UniProt P09880); settings: 1000 µM; 50 mM HEPES pH 7.5, 150 mM NaCl, 1 mM ligand; ligand-free reference in the 1st table, row 6
T3 construct: gene TRL1; not the N+ or N- variants; N-terminal His6-3C tag cleaved; E. coli Rosetta(DE3); monomer
T3 sequence (P09880 561-827 limits assumed): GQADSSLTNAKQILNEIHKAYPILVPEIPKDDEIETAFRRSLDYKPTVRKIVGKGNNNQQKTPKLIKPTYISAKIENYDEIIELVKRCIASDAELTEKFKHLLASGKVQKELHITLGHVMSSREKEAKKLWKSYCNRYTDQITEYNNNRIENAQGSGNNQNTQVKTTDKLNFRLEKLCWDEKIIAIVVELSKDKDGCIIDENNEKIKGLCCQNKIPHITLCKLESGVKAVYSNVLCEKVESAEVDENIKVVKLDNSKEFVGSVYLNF
Excerpt: thermal shift assay, SYPRO Orange on ScTrl1 CPDase

Compound: NC(=O)c1ccc[n+]([C@@H]2O[C@H](COP(=O)(O)OP(=O)(O)OC[C@H]3O[C@@H](n4cnc5c(N)ncnc54)[C@@H]4OP(=O)(O)O[C@@H]43)[C@@H](O)[C@H]2O)c1 [2′,3′-cNADP^+]
- Tm (°C) (BfPNK/CPDase): 48 °C
- Tm (°C) (ScTrl1 PNK/CPDase): 63 °C
- Tm (°C) (ScTrl1 CPDase): 72 °C
